Source: patent US8486920B2, “Composition and method for controlling plant diseases” (priority 2008, dated 2013)
Read-outs that look alike come from different tables or passages of the source.

Tested on: Pythium ultimum, pathogen of cucumber damping-off
Type: in vivo
Settings: cucumber (Sagamihanjiro) seed treatment, 18° C., 13 days
Text: An acetone solution of ethaboxam and an acetone solution of tolclofos-methyl were mixed to prepare mixed liquids containing ethaboxam and tolclofos-methyl in predetermined concentration. These mixed liquids were adhered on the surface of cucumber (Sagamihanjiro) seeds and allowed to stand still overnight. A plastic pot was filled with sandy soil and the seeds were disseminated on it. Then the seeds were covered with sandy soil which had been mixed with a bran medium on which Pythium ultimum, pathogen of cucumber damping-off, had been allowed to grow. They were irrigated and allowed to grow at 18° C. under humidity for 13 days, and thereafter control effect was checked.
As a comparison, acetone solutions containing ethaboxam in the predetermined concentration and acetone solutions containing tolclofos-methyl in the predetermined concentration were prepared and subjected to similar tests.
The incidence of disease was calculated by Equation 1 and the control value was calculated by Equation 2 based on the incidence of disease.
A: Incidence of disease of plant in untreated area
B: Incidence of disease of plant in treated area
E=X+Y−(X×Y)/100 “Equation 2”

Row | SMILES | Actual control value (ethaboxam alone 5 g ai/100 kg-seed) [%] | Actual control value (ethaboxam alone 10 g ai/100 kg-seed) [%] | Actual control value (tolclofos-methyl alone 100 g ai/100 kg-seed) [%] | Actual control value (tolclofos-methyl alone 200 g ai/100 kg-seed) [%]
1 | CCNc1nc(CC)c(C(=O)NC(C#N)c2cccs2)s1 (stereo not shown) [Ethaboxam] | 25 | 58 |  | 
2 | COP(=S)(OC)Oc1c(Cl)cc(C)cc1Cl [tolclofos-methyl] |  |  | 0.0 | 0.0
